Laboratory results published in US9423404B1, “Method of screening for an agent that enhances beige fat adipogenesis” (The Board of Trustees of the Leland Stanford Junior …, priority 2013, dated 2016).

How the values were obtained:
CYP24A1 = test: RT-qPCR of CYP24A1 (24-hydroxylase), marker of calcitriol responsiveness; format: cell-based, human; details: H305Q mutant, 10 nM calcitriol, ex vivo
Method: FIG. 3. […] (A) Control and HVDRR fibroblasts were treated with vehicle (0.1% ethanol) or 10 nM calcitriol for 6 hr. RT-qPCR assays were carried out for CYP24A1 a marker of calcitriol responsiveness. DM denotes double mutant with H305Q mutation in the VDR and BSCL2 mutation. […] Relative gene expression of UCP1 in WT and HVDRR fibroblasts differentiated with DIMR or DIMR plus 10 nM calcitriol for 14 days.
Real-time RT-PCR. […] RNA was isolated using RNeasy Plus Mini Kit (Qiagen, Valencia, Calif.). cDNA was prepared using Maxima Universal First Strand cDNA Synthesis kit (Fisher Scientific, Pittsburgh, Pa.). Real time PCR was performed using the DyNAmo ColorFlash qPCR kit (Fisher Scientific). Relative changes in mRNA expression were assessed by the 2-ΔΔC(T) method and normalized to that of the reference gene glyceraldehyde phosphate dehydrogenase (GAPDH). The values from vehicle treated normal control fibroblasts were set at 1. Assays were performed in triplicate.

[1] = system: differentiated human fibroblasts; test: Lipolysis assay (glycerol release); format: cell-based; details: for increase in glycerol release compared to the undifferentiated cells: 10 μM isoproterenol 24 hrs
Method: Lipolysis assay. To measure lipolysis activity, control and differentiated fibroblasts, were starved in DMEM containing 1% FBS overnight. Cells were then incubated for 24 hrs in HBSS (Hank's balanced salt solution) containing 2% fatty-acid-free BSA and 10 μM isoproterenol. The culture medium was collected for glycerol measurement using the free glycerol reagent (Sigma, St. Louis, Mo.).

SMILES | induction of 24-hydroxylase (CYP24A1) expression by VDR (CYP24A1) | induction of lipolysis compared to the H305Q single mutant ([1]; H305Q/BSCL2 double mutant) | increase in glycerol release compared to the undifferentiated cells ([1]; HVDRR cells differentiated with DIMR) | increase in glycerol release compared to the undifferentiated cells ([1]; WT control cells differentiated with DIMR)
C=C1/C(=C\C=C2/CCC[C@]3(C)[C@@H]([C@H](C)CCCC(C)(C)O)CC[C@@H]23)C[C@@H](O)C[C@@H]1O [calcitriol] | rescues the induction |  |  | 
CC(C)NCC(O)c1ccc(O)c(O)c1 (stereo not shown) [isoproterenol] |  | significantly less induction of lipolysis | 1.5-4 fold | 2.5 fold
